This note sets out measurements from patent publication US7223777B2, “Compounds for the management of aging-related and diabetic vascular complications, process for their preparation, therapeutic and cosmetic uses thereof” (Torrent Pharmaceuticals Ltd., priority 2001, dated 2007).

Test [1] addresses T1, AGE-BSA (Bos taurus, UniProt P02769).
T1 construct: Bovine serum albumin (fraction V) (BSA); from tissue; host or cells: bovine serum (fraction V); own knowledge: fraction V is the albumin fraction of plasma/serum
Put plainly: In-vitro screening for AGE-breaking activity (AGE-BSA incubated with compound; ELISA / gel permeation chromatography). In kind it is biochemical, bovine. To be noted: 37° C., 24 hours. Here is the method: Fluorescence was used as the criteria to monitor the increased AGE formation.
160 mg/ml of protein, bovine serum albumin, BSA and 1.6M glucose sugar were dissolved in phosphate buffered saline, PBS. Sodium azide was added at 0.02% concentration as a preservative. The solution was filtered asceptically through a […] filter and kept for aging at 37° C. for 16 weeks. After 16 weeks the solution was dialyzed against PBS, aliquoted and stored at −20° C.
To determine the AGE breaking activity, 10 μg/ml of the 16 weeks AGE-BSA was incubated with different concentrations of the test compounds at 37° C. for 24 hours and AGE breaking activity of the test compounds by ELISA was determined.
• 1. Different concentrations of 16 weeks AGE-BSA were coated on a microtiter plate as standard. Each concentration is coated in triplicates. • 2. The test samples were coated on microtiter plate at a concentration of 5 ng. to 20 ng per well in triplicates. • 3. The plate was incubated at 37° C. for one hour. • 4. After incubation the plate was washed with PBST (PBS with 0.05% Tween 20). • 5. Blocking with 5% skimmed milk in PBS at 37° C. for one hour was done. • 6. The plate was washed with PBST. • 7. Primary antibody against AGE-BSA was added and the plate is incubated at 37° C. for one hour. • 8. The plate was washed with PBST. • 9. Secondary antibody anti rabbit HRPO (Horse-Radish Per Oxidase) conjugate was added and the plate is incubated at 37° C. for one hour. • 10. The plate was washed with PBST. • 11. Colour development with OPD (orthophenylenediamine dihydrochloride) and hydrogen peroxide was done. • 12. OD (optical density) at (450 nm reading –620 nm reading) was measured after incubation at 37° C. for 15 minutes with Microplate ELISA Reader.
The breaker activity of the compounds were determined by the following formula:
[formula] OD450-620Control=Absorbance of 20 ng AGE-BSA after incubation at 37° C. for 24 hours without test compound. OD450-620Test=Absorbance of 20 ng AGE-BSA after incubation at 37° C. for 24 hours with required concentration of test compound.
Gel Permeation Chromatography based method was used to determine AGE breaking activities of the compounds.
Separation by Gel Permeation Chromatography (GPC) depends on differences in the size, more precisely the hydrodynamic volume, of the proteins in a sample. […] The pores of a column particle are differentially accessible to smaller particles, depending on their size. This volume of the column is called (V1). The total accessible volume (Vt) is the sum of the volume outside the particles (V0) and the volume accessible inside the particles (V1): Vt=V0+Vi Therefore, in a typical Gel Permeation Chromatography (GPC) run, high molecular weight molecules elute at a lower retention time whereas lower molecular weight molecules are retained for longer time. For the purpose of quantification, the area under the curve for the respective molecule is recorded. The same principle has been applied in the in vitro screening of the molecules of instant invention. Highly cross-linked Advanced Glycosylated Endproducts (AGE) were prepared in vitro by incubating Bovine Serum Albumin (BSA) with glucose for a period of 16 weeks. […] The reduction in the area of AGE-BSA incubated in the presence of AGE breaker as compared to that of control AGE BSA (incubated in absence of AGE breaker) gives an estimate of the AGE breaker activity of the drug. In order to check the non-specific activity of the molecule, a similar experiment was repeated with BSA as well. Methodology:
A known concentration of 16-week AGE-BSA was incubated with and without a predetermined concentration of the drug at 37° C. for 24 hours in clean transparent glass test tubes. The solution without drug served as the control and the solution containing the drug was treated as the test sample.
Gel permeation chromatography was performed on equal volumes of control AGE-BSA preparation and solution of AGE-BSA treated with drug. […]

Test [2] has as its system Maillard reaction in-vitro (BSA, ribose). Description: Test for AGE inhibiting activity (Maillard reaction in-vitro, BSA + ribose, fluorescence). In kind it is biochemical, bovine. To be noted: 37° C., 7 days. Here is the method: The following method was used to determine the inhibitory effect of the test compounds on Maillard reaction in-vitro. This method is adopted from U.S. Pat. No. 5,514,676 and European Patent No. 0 339 496 A2.
A solution of Bovine Serum Albumin (BSA), ribose and test compound was prepared in Phosphate Buffer Saline (PBS, pH 7.4) so as to have final concentration of BSA and ribose at 10 mg/ml and 500 mM respectively. Addition of compound was done in aseptic conditions. Sodium azide (0.02%) was also added in this solution in order to prevent microbial growth. A separate tube containing BSA, ribose and sodium azide in the same concentration and buffer as above, but without any test compound, was also incubated as positive control. After incubation at 37° C. for 7 days, 40 micro liter sample from each tube was removed and diluted with PBS to have final concentration of BSA at 1 mg/ml. The fluorescence of all the samples was measured at Excitation Maximum of […] and the Emission Maximum of […] using f-MAX Fluorimeter (Molecular Device, USA). In order to study the effect of test compound on fluorescence, freshly prepared compound solution was mixed with previously incubated positive control (i.e. BSA+ribose), so as to achieve same concentration of all the components as that of test samples.
The percent inhibition of test compound was measured as follows:
[formula] Where F3=Fluorescence of BSA+ribose+compound, F4 is fluorescence of incubated (BSA+ribose)+freshly added test compound.

Test [3] is described as follows: Free radical scavenging activity on ABTS radical cation. The format is biochemical. Here is the method:
This method measures the relative ability of free radical scavenging substances to scavenge the ABTS.^+ i.e. 2,2-Azino-bis-(3-ethyl benzo thiazoline-6-sulfonate) radical cation as compared to a standard amount of standard or free radical scavengers antioxidants. Incubation of ABTS with Peroxidase (metmyoglobin) and hydrogen peroxide results in the production of radical cation ABTS.^+. This species is blue-green in colour and can be detected at 730 nm. Antioxidants or free radical scavengers in the added sample that causes suppression of the color to a degree that is proportional to their concentration.
Preparation of Buffer Solutions: • a. Phosphate Citrate Buffer (pH 5.0): 48.5 ml of 0.1M citric acid with sufficient 0.2M disodium hydrogen phosphate to produce 100 ml. • b. Phosphate Buffer Saline (PBS): Dissolve 40.0 g of NaCl, 1.0 g of KCl, 1.0 g of KH2PO4 and 3.05 g of Na2HPO4 in 1 liter milli-Q water. Dilute 200 ml of above solution to 1 liter with milli-Q water (pH 7.4–7.6).
Preparation of ABTS Stock Solution (2 mM): • 1 tablet (10 mg) was dissolved in phosphate citrate buffer (pH 5.0) to give a 2 mM solution.
Preparation of Horse Radish Peroxidase Working Solution: • 0.1 mg was dissolved in 10 ml of phosphate buffer saline, 1 ml of this solution was diluted to 100 ml with PBS.
Preparation of Hydrogen Peroxide (1.08 mM) Solution: • 12 μl of Hydrogen Peroxide (30% w/v) was diluted to 100 ml with PBS.
Preparation of Drug Solutions: • 0.1 mM of stock solution of the drug was prepared which was serially diluted in PBS to get 0.05 mM, 0.025 mM and 0.0125 mM solutions.
Preparation of ABTS Radical Stock Solution: • To 2 ml of ABTS stock solution, 1 ml of horseradish Peroxidase working solution was added. • As soon as 2 ml of Hydrogen peroxide solution was added to the above solution, blue-green colour of the ABTS radicals appeared. This solution was incubated at 30° C. for 30 min in order to ensure the completion reaction. Make up the volume to 10 ml with PBS.
Preparation of Control Solution: • 900 μl of ABTS radical stock solution were added to an eppendorf tube. To it were added 100 μl of PBS solution.
Preparation of Test Solution: • 900 μl of ABTS radical stock solutions were added to different eppendorf tubes. To it were added 100 μl of various concentrations of drug solution.
Measurement of Absorbance (O.D): • The absorbance of control and test samples was recorded immediately at 730 nm taking PBS as blank.
Calculation: • The percent antioxidant activity was calculated according to the formula: % Antioxidant activity=100−[O.D of test sample/O.D of control×100]

T1 sequence (P02769 25-607): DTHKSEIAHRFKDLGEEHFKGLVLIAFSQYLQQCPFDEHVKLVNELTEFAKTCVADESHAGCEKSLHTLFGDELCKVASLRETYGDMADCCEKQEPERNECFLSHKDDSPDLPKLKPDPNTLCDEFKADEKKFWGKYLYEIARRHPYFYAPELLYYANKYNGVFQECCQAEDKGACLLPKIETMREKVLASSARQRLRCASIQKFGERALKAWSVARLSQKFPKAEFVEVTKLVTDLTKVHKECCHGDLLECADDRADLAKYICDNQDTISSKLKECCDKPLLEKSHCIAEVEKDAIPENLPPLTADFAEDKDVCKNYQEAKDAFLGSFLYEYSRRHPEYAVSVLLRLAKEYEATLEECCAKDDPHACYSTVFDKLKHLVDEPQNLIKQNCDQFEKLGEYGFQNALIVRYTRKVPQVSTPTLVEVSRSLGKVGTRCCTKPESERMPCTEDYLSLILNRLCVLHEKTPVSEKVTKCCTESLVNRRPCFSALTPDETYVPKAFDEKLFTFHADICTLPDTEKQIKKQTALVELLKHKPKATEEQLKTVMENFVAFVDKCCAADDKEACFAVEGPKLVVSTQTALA

As for “1-(2-Thien-2′-yl-2-oxoethyl)-3-[(1-cyclohexyl-3-(3,5-dimethylpyrazol-1-yl)methyl)pyrazol-5-yl]pyridinium chloride [Compound 35]”, the “% Breakage” value in test [1] (10 mM compound) is 66.66%. For the same molecule, in test [2] (10 mM compound), the “% Inhibition (Day 7)” value came to 73.8%. In addition, the “Relative Free Radical Scavenging Activity (%) on ABTS” value in test [3] (12.5 μM) is 28.27%; in test [3] (25.0 μM), 39.78%; in test [3] (50.0 μM), 58.34%; in test [3] (100.0 μM) it was 74.36%.
Consider `Cc1cc(C)n(Cc2cc(-c3ccc[n+](CC(=O)c4cccs4)c3)n(-c3ccccn3)n2)n1.[Br-]` [Compound 6, 1-(2-Thien-2′-yl-2-oxoethyl)-3-[3{(3,5-dimethylpyrazol-1-yl)methyl-1-(2-pyridyl)}pyrazol-5-yl]pyridinium bromide], for which, in test [2] (10 mM compound), the “% Inhibition (Day 7)” value is reported as 66%. Further, the “Relative Free Radical Scavenging Activity (%) on ABTS” value in test [3] (12.5 μM) is 21.99%; in test [3] (25.0 μM) it was 40.56%; in test [3] (50.0 μM) it was 61.68%; in test [3] (100.0 μM), 81.04%.
With `O=C(C[n+]1cccc(-c2cc(-c3ccc[n+](CC(=O)c4cccs4)c3)[nH]n2)c1)c1cccs1.[Br-].[Br-]` [Compound 10, 3,5-Bis-[1-(2-thien-2′-yl-2-oxoethyl)-pyridinium-3-yl]-pyrazole dibromide], in test [2] (2.5 mM compound), the “% Inhibition (Day 7)” value was 75%. The “Relative Free Radical Scavenging Activity (%) on ABTS” value in test [3] (12.5 μM) was 41.01%; in test [3] (25.0 μM), 72.97%; in test [3] (50.0 μM), 85.75%; in test [3] (100.0 μM) it was 87.04%.
`O=C(C[n+]1cccc(-c2cc(Cc3ccccc3)nn2-c2ccccc2)c1)c1cccs1.[Cl-]` [Compound 11, 1-(2-Thien-2′-yl-2-oxoethyl)-3-[(1-phenyl-3-phenylmethyl)pyrazol-5-yl]-pyridinium chloride]: the “% Breakage” value in test [1] (5 mM compound) amounted to 76.84%. The “% Inhibition (Day 7)” value in test [2] (1.25 mM compound) was 32.9%. For the same molecule, the “Relative Free Radical Scavenging Activity (%) on ABTS” value turned out to be 26.78% in test [3] (12.5 μM), 45.74% in test [3] (25.0 μM), 70.61% in test [3] (50.0 μM) and 86.46% in test [3] (100.0 μM).
Regarding `Cc1cc(C)n(Cc2cc(-c3ccc[n+](CC(=O)c4cccs4)c3)n(-c3ccccc3)n2)n1.[Cl-]` [Compound 13], the “% Breakage” value in test [1] (10 mM compound) worked out at 81.05%. In test [2] (10 mM compound), the “% Inhibition (Day 7)” value is recorded as 57%. For the same molecule, the “Relative Free Radical Scavenging Activity (%) on ABTS” value is listed as 23.58% in test [3] (12.5 μM), 41.78% in test [3] (25.0 μM), 64.01% in test [3] (50.0 μM) and 82.54% in test [3] (100.0 μM).
`Cc1cc(C)n(Cc2cc(-c3ccc[n+](CC(=O)c4ccccc4)c3)[nH]n2)n1.[Cl-]` [Compound 17, 1-(2-Phenyl-2-oxoethyl)-3-[(3-(3,5-dimethylpyrazol-1-yl)methyl)pyrazol-5-yl]-pyridinium chloride]: in test [1] (10 mM compound), the “% Breakage” value amounted to 52.27%. In test [2] (2.5 mM compound), the “% Inhibition (Day 7)” value came out at 57.43%. The “Relative Free Radical Scavenging Activity (%) on ABTS” value was 28.34% in test [3] (12.5 μM), 54.43% in test [3] (25.0 μM), 83.56% in test [3] (50.0 μM) and 94.81% in test [3] (100.0 μM).
Regarding `O=C(C[n+]1cccc(-c2cc(COc3ccccc3)nn2-c2ccccc2)c1)c1cccs1.[Cl-]` [Compound 29, 1-(2-Thien-2′-yl-2-oxoethyl)-3-[(1-phenyl-3-phenoxymethyl)pyrazol-5-yl]pyridinium chloride], the “% Inhibition (Day 7)” value in test [2] (5 mM compound) amounted to 55.22%. Further, the “Relative Free Radical Scavenging Activity (%) on ABTS” value in test [3] (12.5 μM) amounted to 31.82%; in test [3] (25.0 μM) it was 46.84%; in test [3] (50.0 μM), 58.84%; in test [3] (100.0 μM), 55.22%.
